From patent US20180094139A1 (priority 2014, published 2018) come the findings set out here.

The target in one series is BlaC (Mycobacterium tuberculosis, UniProt P9WKD3). Type of series: biochemical.
A short description of series [1]: Stability of fluorogenic probes in MES buffer (spontaneous hydrolysis). The class given is physicochemical. As to conditions: 0.1 M, pH 6.6, room temperature (22° C.).
Series [2] deals with E. cloacae with AmpC β-lactamase. Type of series: cell-based. Conditions: 10^5 c.f.u., probe 10 μM, 3 h incubation.
For series [3], the system named is K. pneumoniae with Class A carbapenemase KPC. The class given is cell-based. Conditions: 10^5 c.f.u., probe 10 μM, 3 h incubation.
In series [4] the test system is β-lactamase-expressing bacteria. Type of series: cell-based.
For series [5], the system named is penicillinase isolated from Bacillus cereus (Pen). Conditions: probe 10 μM, 3 h incubation with diluted Pen.
Method: Data were collected in a 384-well plate with a total volume of 25 μL in each well. Fluorescence was measured with excitation at 490 nm and emission at 535 nm. Relative fluorescence represents the difference in fluorescence intensity with and without β-lactamase incubation. […] Error bars are ±SD.

BlaC, sequence (P9WKD3 35-307 limits assumed): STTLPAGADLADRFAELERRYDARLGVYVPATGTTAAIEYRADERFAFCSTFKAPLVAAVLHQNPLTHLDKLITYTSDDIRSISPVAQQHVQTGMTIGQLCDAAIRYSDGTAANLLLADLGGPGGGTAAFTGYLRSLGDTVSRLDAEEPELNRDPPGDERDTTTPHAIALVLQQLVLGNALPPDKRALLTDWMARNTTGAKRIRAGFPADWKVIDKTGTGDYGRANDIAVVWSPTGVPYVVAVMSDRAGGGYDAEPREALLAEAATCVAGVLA

For `CO[C@@]1(NC(=O)Cc2ccccc2)C(=O)N2C(C(=O)O)=C(COc3ccc4ccc(=O)oc4c3)C3(CC3)S[C@@H]21` [CDC-OMe-Cp, (6R,7S)-7-methoxy-3-(((2-oxo-2H-chromen-7-yl)oxy)methyl)-7-(2-phenylacetamido)-2-azaspiro[2,1′-cyclopropane]-3-cephem-4-carboxylic acid], the “catalytic efficiency (kcat/Km) for BlaC over TEM-1 Bla” value (from here on “catalytic efficiency … over TEM-1 Bla”) at BlaC is given as 6.3×10^4 fold.
Consider `COc1ccc(-c2c3ccc(=O)cc-3oc3cc(OCc4ccc(OCC5=C(C(=O)O)N6C(=O)[C@](NC(=O)Cc7ccccc7)(OC)[C@H]6SC5)cc4)ccc23)c(C)c1` [CDG-OMe], for which the “catalytic efficiency … over TEM-1 Bla” value on BlaC was 8,900 fold. The spontaneous hydrolysis rate in series [1] amounted to 1.9e-07 s⁻¹. For the same molecule, the “fluorescent intensity ratio of AmpC to BlaC (IAmpC/IBlaC)” value in series [2] is listed as 1/9. In addition, the “fluorescent intensity ratio IKPC/IBlaC” value in series [3] is given as 1/4. Further, the “fluorescence signal with β-lactamase-expressing bacteria (specificity)” value in series [4] is “much better selectivity for BlaC over other β-lactamase expressing bacteria”. Further, in series [5], the “activity towards penicillinase (Pen)” value was “some activity”.
Turning to `COc1ccc(-c2c3ccc(=O)cc-3oc3cc(OCc4ccc(OCC5=C(C(=O)O)N6C(=O)[C@@H](NC(=O)Cc7ccccc7)[C@H]6SC5)cc4)ccc23)c(C)c1` [CDG-1], the “fluorescence signal with β-lactamase-expressing bacteria (specificity)” value in series [4] is recorded as “fluorescent signal turn-on with all bacteria”.
`O=C(Cc1ccccc1)N[C@@H]1C(=O)N2C(C(=O)O)=C(COc3ccc4ccc(=O)oc4c3)C3(CC3)S[C@H]12` [CDC-Cp, (6R,7R)-3-(((2-oxo-2H-chromen-7-yl)oxy)methyl)-7-(2-phenylacetamido)-2-azaspiro[2,1′-cyclopropane]-3-cephem-2-carboxylic acid]: on BlaC, the “catalytic efficiency … over TEM-1 Bla” value is “around 10 fold”.
